{"source": "patent US20150265666A1", "about": "“BOTANICAL ANTIMICROBIAL COMPOSITIONS” (THE TRUSTEES OF COLUMBIA UNIVERSITY IN THE CITY OF NEW YORK, priority 2012, published 2015)", "key": {"[1]": {"tested_on": "S. aureus", "test": "Rapid kill method (10^8 cfu/ml S. aureus), 15 seconds, oral rinse base", "format": "cell-based", "procedure": "Synergistic effect of botanical extracts and biguanides (Rapid kill method (108 S. aureus)): The antimicrobial effect of an oral rinse base, containing the ingredients described in table 10 below, were tested against a high concentration of bacteria. In a sterile culture tube, 0.1 ml of S. aureus (10^8 cfu/ml) was treated with 0.9 ml of test mouthrinse for 15 seconds. The reaction was stopped with Drug neutralizing Fluid (DNF) and then further diluted with the same media. 0.5 ml of the dilution was then plated on Tripticase Soy Agar (TSA) and incubated at 37° C. overnight. The colony counts were determined and the log 10 reduction from the control (phosphate-buffered saline (PBS) inoculated with the same culture) was calculated."}, "[2]": {"tested_on": "S. aureus", "test": "ASTM E 2783-11 protocol, 15 seconds, ingredients in Base A (Example 16)", "format": "cell-based", "settings": "for Log reduction compared to control: ingredients in Base A; for synergistic activity with chlorhexidine (in words): Experiment 1, Base A", "procedure": "The antimicrobial efficacy of a composition comprising biguanides and fennel oil, thyme oil/thymol and/or vanilla oil was tested against S. aureus (10^7 cfu/ml). […] In-vitro study Test organism: S. aureus (10^7 cfu/ml) […] These plates were incubated at 37° C. for 24 hours and the colony counts (cfu)/ml were determined."}, "[3]": {"settings": "use as oral antiseptic; cited from earlier work"}, "[4]": {"tested_on": "murine fibroblasts cell lines", "settings": "cited from earlier work"}, "[5]": {"tested_on": "human dennal, gingival and osteoblastic cell lines", "settings": "cited from earlier work"}, "[6]": {"settings": "0.12% solutions, oral decontamination prior to mechanical intubation; cited from earlier work"}, "[7]": {"tested_on": "methicillin-resistant Staphylococcus aureus (“MRSA”)", "test": "MRSA Rapid-Kill Assay (tube-dilution, US FDA-TFM, 15 second exposure)", "format": "cell-based"}, "[8]": {"tested_on": "P. aeruginosa", "test": "Agar-plate method: sample spread on TSA, 1 hr, then inoculated; log10 reduction", "format": "cell-based", "settings": "Example 3", "procedure": "For oral care products, PHMB is preferred because BAC can produce mucosal irritation. PHMB is effective against gram negative bacteria. Therefore P. aeruginosa which is a gram negative organism was used in these tests. An agar-plate method was used/0.5 ml of the test sample was spread on TSA plates and for control PBS was used in the plate. These plates were incubated for 1 hr in the incubator at temperature 37±1° C. After 1 hr, the plates were taken out of the incubator and inoculated with 0.5 ml of 1×10^3 cfu/ml culture of P. aeruginosa. The plates were incubated for 18-24 hrs at 37±1° C. The antibacterial activity was determined by calculating the difference in log 10 colony-forming units (cfu) between control and test samples (i.e., log 10 reduction)."}, "[9]": {"settings": "Experiment 1, S. aureus 10^7 cfu/ml, T, B, F, V each 0.1 % w/w, CHG 0.12 % w/w"}, "[10]": {"settings": "Experiment 2, S. aureus 10^7 cfu/ml, each 0.1 % w/w"}}, "note": "Entries after “also recorded” stand apart in the source; their conditions may differ."}
{"compound": "N=C(NCCCCCCNC(=N)NC(=N)Nc1ccc(Cl)cc1)NC(=N)Nc1ccc(Cl)cc1", "note": "[CHX (0.06%)]", "values": [{"measurement": "Log10 Growth", "setting": "[1]; Table 10, in oral rinse base, control growth 7.29", "result": 5.60, "unit": "log10"}, {"measurement": "Log10 Reduction", "setting": "[1]; Table 10, in oral rinse base, reduction from control (PBS)", "result": 1.69, "unit": "log10"}]}
{"compound": "[H]/N=C(\\N/C(=N/[H])NCCCCCCNC(=N)NC(=N)Nc1ccc(Cl)cc1)Nc1ccc(Cl)cc1", "note": "[Chlorhexidine (CHG)]", "values": [{"measurement": "Log reduction compared to control", "setting": "[2]; [9]", "result": 0.73, "unit": "log"}]}
{"compound": "Cc1ccc(C(C)C)c(O)c1", "note": "[T (Thymol)]", "values": [{"measurement": "Log reduction compared to control", "setting": "[2]; [9]", "result": 1.29, "unit": "log"}, {"measurement": "Log reduction compared to control", "setting": "[2]; [10]", "result": 1.29, "unit": "log"}]}
{"compound": "[H]/N=C(\\N/C(=N/[H])NCCCCCCNC(=N)NC(=N)Nc1ccc(Cl)cc1)Nc1ccc(Cl)cc1", "note": "[chlorhexidine]", "values": [{"measurement": "synergistic antibacterial activity of botanical extracts and biguanides (in words)", "setting": "[1]; Example 10", "result": "did not show such synergism"}, {"measurement": "synergistic activity with chlorhexidine (in words)", "setting": "[2]; 10^7 cfu/ml", "result": "combination of either fennel seed oil and thymol or fennel seed oil, thymol and vanilla oil with chlorhexidine also exhibited synergistic activity"}, {"measurement": "synergistic activity with chlorhexidine (in words)", "setting": "[2]; 10^7 cfu/ml, listed as Chlorhexidine", "result": "exhibits synergistic activity when combined with either thymol or basil oil"}, {"measurement": "adverse effects", "setting": "[3]", "result": "irritation of the oral mucosa, discoloration of teeth and altered taste perception"}, {"measurement": "cytotoxicity", "setting": "[4]", "result": "cytotoxic"}, {"measurement": "cytotoxicity", "setting": "[5]", "result": "cytotoxic"}, {"measurement": "risk of acquiring VAP", "setting": "[6]", "result": "can reduce the risk of acquiring VAP"}]}
{"compound": "benzalkonium chloride [BAC]", "values": [{"measurement": "antibacterial activity, effect of combining actives (in words)", "setting": "[7]; Example 1, actives in base formulation", "result": "enhanced the activity of essential oil mixtures containing thymol"}, {"measurement": "antibacterial activity, effect of combining actives (in words)", "setting": "[7]; Example 4", "result": "enhances the activity of essential oils (CN+LG+T)"}, {"measurement": "Log reduction from control growth", "setting": "[7]; Table 1, MRSA, conc. active agent 0.13 % w/w", "result": 0.05, "unit": "log10"}, {"measurement": "Log reduction from control growth", "setting": "[7]; Table 2, MRSA, conc. active agent 0.13 % w/w", "result": 0.05, "unit": "log10"}, {"measurement": "Log reduction from control growth", "setting": "[7]; Table 5A, MRSA, conc. active agent 0.6 % w/w", "result": 0.5, "unit": "log10"}]}
{"compound": "pentanediol", "values": [{"measurement": "antibacterial activity, effect of combining actives (in words)", "setting": "[8]", "result": "enhanced the activity of low concentrations of essential oils and lemon extract"}]}
{"compound": "polyhexamethylene biguanide [PHMB]", "values": [{"measurement": "antibacterial activity, effect of combining actives (in words)", "setting": "[7]; Example 1, PHMB at 0.06%", "result": "showed synergistic activity with essential oils"}, {"measurement": "Log reduction from control growth", "setting": "[7]; Table 1, MRSA, conc. active agent 0.012 % w/w", "result": 0.4, "unit": "log10"}, {"measurement": "Log reduction from control growth", "setting": "[7]; Table 1, MRSA, conc. active agent 0.06 % w/w", "result": 3.1, "unit": "log10"}, {"measurement": "Log reduction from control growth", "setting": "[7]; Table 2, MRSA, conc. active agent 0.012 % w/w", "result": 0.4, "unit": "log10"}, {"measurement": "Log reduction from control growth", "setting": "[7]; Table 5B, MRSA, conc. active agent 0.06 % w/w", "result": 4.0, "unit": "log10"}, {"measurement": "antibacterial activity, effect of combining actives (in words)", "setting": "[8]", "result": "enhanced the activity of low concentrations of essential oils and lemon extract"}, {"measurement": "synergistic activity with PHMB (in words)", "setting": "[2]; Experiment 2, Base A, 10^7 cfu/ml", "result": "exhibited synergistic activity when combined with either thymol or vanilla oil; also recorded: combination of either fennel seed oil and thymol or fennel seed oil, thymol and vanilla oil with PHMB also exhibited synergistic activity"}, {"measurement": "Log reduction compared to control", "setting": "[2]; [10]", "result": 1.96, "unit": "log"}]}
